In ChEMBL document CHEMBL1135555 (Bioorg Med Chem Lett, 2002) one finds IC50 and Ki data, which are given here for six compounds.

Broadly, the IC50 is the point on the concentration scale where inhibition reaches its midpoint. Low readings indicate inhibition by little substance, high ones a need for much substance. In general, Ki refers to the dissociation constant of the complex between target and ligand, obtained from inhibition or displacement. The low end stands for tighter binding, the high end for weaker binding.

The target in assay [1] is cGMP-specific 3',5'-cyclic phosphodiesterase (Rattus norvegicus, UniProt O54735). Briefly: Inhibition of Phosphodiesterase 5 from rat diaphragm.
Assay [2] is described as follows: Inhibition of Phosphodiesterase 3 from rat diaphragm.

Regarding `C=C(C)C(CCC(C)(C)O)Cc1c(O)cc(OC)c2c1O[C@H](c1ccc(O)cc1O)[C@H](O)C2=O` (stereo partly specified), the IC50 came to 10600 nM in assay [1] and 12800 nM in assay [2].
As to `C=C(C)[C@H](CC=C(C)C)Cc1c(O)cc(OC)c(C(=O)/C=C/c2ccc(O)cc2O)c1O` [KURAIDIN], the IC50 in assay [1] amounted to 640 nM; in assay [2], 1250 nM.
With `C=C(C)C(CCC(C)(C)O)Cc1c(O)cc(OC)c2c1O[C@H](c1ccc(O)cc1O)[C@@H](O)C2=O` (stereo partly specified), 13500 nM corresponded to half-maximal inhibition in assay [2] (IC50).
For the compound `C=C(C)[C@H](CCC(C)(C)O)Cc1c(O)cc(OC)c2c1O[C@H](c1ccc(O)cc1O)CC2=O` [KURARINOL], the IC50 in assay [1] is 6100 nM; in assay [2], 2950 nM.
`Cc1[nH]c(=O)c(C#N)cc1-c1ccncc1` [MILRINONE] registered an IC50 in assay [2] of 740 nM.
Consider `COc1cc(O)c(CC=C(C)C)c2oc(-c3ccc(O)cc3)c(O)c(=O)c12` [SOPHOFLAVESCENOL], for which the IC50 is 13 nM in assay [1] and 410 nM in assay [2]. The affinity in assay [1], expressed as Ki, was 5 nM.
